{"source": "patent US20060088886A1", "about": "“Topiramate analogs” (priority 2004, published 2006)", "system": "anti-topiramate antibodies prepared with immunogen (17)", "assay": "ELISA binding inhibition study (avidity), free topiramate vs coated antigens", "design": "species or system Rabbit", "conditions": "for Abs Antigen 16 / Abs Antigen 19 / Abs Antigen 20: 405 nm", "procedure": "ELISA plates for use in an ELISA assay are prepared in order to study the polyclonal antibody prepared as described in Example 21. As such, various topiramate antigens (16), (19), and (20) are coated on different ELISA plates before being subjected to the anti-topiramate antibody and competing free topiramate. More particularly, the topiramate antigens are diluted in coating buffer, and then added to the wells of ELISA plate. After the ELISA plate is inculcated for 60 min at 37° C., the solvent in the coating buffer is decanted and a blocking buffer is added to the plate. The plate is incubated again for 60 min at 37° C., and the solvent in the blocking buffer is decanted from the plate. The ELISA plate is then stored with the blocking agent in the wells at 2-8° C. for up to 1 week. The avidity of the anti-topiramate antibodies prepared with immunogen (17) for topirainate analogs are determined by a binding inhibition study. As such, samples are prepared in 1 mL of PBS at pH 7.4 with 0.1% BSA. A composition having 30% Bmax titer or 50% Bmax titer is used to divide the obtained titer value into approximately half the titer value. Using 30% Bmax, an antibody titer of 1:10000 is diluted to 1:5000 during the sample preparation stage. About 50 μL of topiramate at different concentrations or calibrator values, (0, 2, 4, 8, 16, 32 μg/ml) are then applied to a plate as prepared in accordance with Example 22. About 50 μL of the diluted antibody is dispensed into the plate, and the compositions in the plate are mixed for 1 min on a horizontal plate shaker. The plate is characterized by a first row not containing topiramate or anti-topiramate antibody, wherein the first row is used as a negative control. A second row not containing topiramate is used as the positive control. The plate is incubated for 60 min, and washed three times with 250 μL of PBS at pH 7.4 with 0.05% tween. About 125 μL of a diluted second antibody conjugate such as antigens (16), (19), or (20), in PBS at pH 7.4 is added to each well of the plate. Titer is determined experimentally by the plate being incubated for 60 min at 37° C. and washed 3 times with 250 μL PBS, pH 7.4 with 0.05% tween. Subsequently, about 125 μL of ABTS substrate is added to each well of the plate and incubated for 20 min.", "key": {"[1]": {"conditions": "Rabbit No. 5481, topiramate 2 μg/ml"}, "[2]": {"conditions": "Rabbit No. 5481, topiramate 4 μg/ml"}, "[3]": {"conditions": "Rabbit No. 5481, topiramate 8 μg/ml"}, "[4]": {"conditions": "Rabbit No. 5481, topiramate 16 μg/ml"}, "[5]": {"conditions": "Rabbit No. 5481, topiramate 32 μg/ml"}, "[6]": {"conditions": "Rabbit No. 5492, topiramate 2 μg/ml"}, "[7]": {"conditions": "Rabbit No. 5492, topiramate 4 μg/ml"}, "[8]": {"conditions": "Rabbit No. 5492, topiramate 8 μg/ml"}, "[9]": {"conditions": "Rabbit No. 5492, topiramate 16 μg/ml"}, "[10]": {"conditions": "Rabbit No. 5492, topiramate 32 μg/ml"}}, "data": [{"smiles": "CC1(C)O[C@@H]2[C@@H](CO[C@@]3(COS(N)(=O)=O)OC(C)(C)O[C@@H]23)O1", "note": "[Topiramate, 2,3:4,5-di-O-isopropylidene-beta-D-fructopyranose sulfamate]", "values": [{"measurement": "B/Bo Antigen 16", "setting": "[1]", "result": 0.38}, {"measurement": "B/Bo Antigen 19", "setting": "[1]", "result": 0.40}, {"measurement": "B/Bo Antigen 20", "setting": "[1]", "result": 0.53}, {"measurement": "Abs Antigen 16", "setting": "[1]", "result": 0.29}, {"measurement": "Abs Antigen 19", "setting": "[1]", "result": 0.33}, {"measurement": "Abs Antigen 20", "setting": "[1]", "result": 0.32}, {"measurement": "B/Bo Antigen 16", "setting": "[2]", "result": 0.34}, {"measurement": "B/Bo Antigen 19", "setting": "[2]", "result": 0.30}, {"measurement": "B/Bo Antigen 20", "setting": "[2]", "result": 0.50}, {"measurement": "Abs Antigen 16", "setting": "[2]", "result": 0.26}, {"measurement": "Abs Antigen 19", "setting": "[2]", "result": 0.25}, {"measurement": "Abs Antigen 20", "setting": "[2]", "result": 0.30}, {"measurement": "B/Bo Antigen 16", "setting": "[3]", "result": 0.24}, {"measurement": "B/Bo Antigen 19", "setting": "[3]", "result": 0.24}, {"measurement": "B/Bo Antigen 20", "setting": "[3]", "result": 0.42}, {"measurement": "Abs Antigen 16", "setting": "[3]", "result": 0.18}, {"measurement": "Abs Antigen 19", "setting": "[3]", "result": 0.20}, {"measurement": "Abs Antigen 20", "setting": "[3]", "result": 0.25}, {"measurement": "B/Bo Antigen 16", "setting": "[4]", "result": 0.20}, {"measurement": "B/Bo Antigen 19", "setting": "[4]", "result": 0.22}, {"measurement": "B/Bo Antigen 20", "setting": "[4]", "result": 0.37}, {"measurement": "Abs Antigen 16", "setting": "[4]", "result": 0.15}, {"measurement": "Abs Antigen 19", "setting": "[4]", "result": 0.18}, {"measurement": "Abs Antigen 20", "setting": "[4]", "result": 0.22}, {"measurement": "B/Bo Antigen 16", "setting": "[5]", "result": 0.14}, {"measurement": "B/Bo Antigen 19", "setting": "[5]", "result": 0.18}, {"measurement": "B/Bo Antigen 20", "setting": "[5]", "result": 0.30}, {"measurement": "Abs Antigen 16", "setting": "[5]", "result": 0.11}, {"measurement": "Abs Antigen 19", "setting": "[5]", "result": 0.15}, {"measurement": "Abs Antigen 20", "setting": "[5]", "result": 0.18}, {"measurement": "B/Bo Antigen 16", "setting": "[6]", "result": 0.56}, {"measurement": "B/Bo Antigen 19", "setting": "[6]", "result": 0.38}, {"measurement": "B/Bo Antigen 20", "setting": "[6]", "result": 0.64}, {"measurement": "Abs Antigen 16", "setting": "[6]", "result": 0.25}, {"measurement": "Abs Antigen 19", "setting": "[6]", "result": 0.31}, {"measurement": "Abs Antigen 20", "setting": "[6]", "result": 0.45}, {"measurement": "B/Bo Antigen 16", "setting": "[7]", "result": 0.44}, {"measurement": "B/Bo Antigen 19", "setting": "[7]", "result": 0.28}, {"measurement": "B/Bo Antigen 20", "setting": "[7]", "result": 0.59}, {"measurement": "Abs Antigen 16", "setting": "[7]", "result": 0.20}, {"measurement": "Abs Antigen 19", "setting": "[7]", "result": 0.23}, {"measurement": "Abs Antigen 20", "setting": "[7]", "result": 0.41}, {"measurement": "B/Bo Antigen 16", "setting": "[8]", "result": 0.33}, {"measurement": "B/Bo Antigen 19", "setting": "[8]", "result": 0.23}, {"measurement": "B/Bo Antigen 20", "setting": "[8]", "result": 0.54}, {"measurement": "Abs Antigen 16", "setting": "[8]", "result": 0.15}, {"measurement": "Abs Antigen 19", "setting": "[8]", "result": 0.19}, {"measurement": "Abs Antigen 20", "setting": "[8]", "result": 0.38}, {"measurement": "B/Bo Antigen 16", "setting": "[9]", "result": 0.29}, {"measurement": "B/Bo Antigen 19", "setting": "[9]", "result": 0.20}, {"measurement": "B/Bo Antigen 20", "setting": "[9]", "result": 0.54}, {"measurement": "Abs Antigen 16", "setting": "[9]", "result": 0.13}, {"measurement": "Abs Antigen 19", "setting": "[9]", "result": 0.17}, {"measurement": "Abs Antigen 20", "setting": "[9]", "result": 0.38}, {"measurement": "B/Bo Antigen 16", "setting": "[10]", "result": 0.02}, {"measurement": "B/Bo Antigen 19", "setting": "[10]", "result": 0.18}, {"measurement": "B/Bo Antigen 20", "setting": "[10]", "result": 0.40}, {"measurement": "Abs Antigen 16", "setting": "[10]", "result": 0.01}, {"measurement": "Abs Antigen 19", "setting": "[10]", "result": 0.15}, {"measurement": "Abs Antigen 20", "setting": "[10]", "result": 0.28}]}]}
